The values that follow come from ChEMBL document CHEMBL6127139, “Lysine-Targeted Covalent Inhibitors of PI3Kδ Synthesis and Screening by In Situ Interaction Upgradation” (J Med Chem, 2024).

The structures appear in SMILES notation. Calls of active or inactive are those of the source. The calls are words filed in the database; no cut-off is given here.

A short description of series [1]: Chemical reactivity of the compound with N-Boc-Lysine assessed as half-life at 1 uM by HPLC analysis. Type of series: physicochemical. Conditions: incubation with N-Boc-Lysine.
Series [2] deals with Phosphatidylinositol 4,5-bisphosphate 3-kinase catalytic subunit alpha isoform (Homo sapiens, UniProt P42336). The series is described as follows: Inhibition of recombinant PI3Kalpha (unknown origin) using PIP2:3PS as substrate preincubated for 20 mins followed by ATP addition and measured after 1 hrs by ADP-Glo reagent based assay. Background: In ADP-Glo the light output rises with the ADP produced.

The test system of another series is Raji. The series is described as follows: Growth inhibition of human Raji cells incubated for 72 hrs by MTT assay. In kind it is functional. On the technique in general: Tetrazolium dyes change colour on reduction, which living cells bring about.
Series [3] in a line: Selectivity ratio of GI50 for human HCT-116 cells to GI50 for PI3Kdelta overexpressing human SU-DHL-6. Type of series: functional.
For series [4], the target named is T1, Phosphatidylinositol 4,5-bisphosphate 3-kinase catalytic subunit delta isoform (Homo sapiens) (UniProt O00329).
T1 sequence (whole entry): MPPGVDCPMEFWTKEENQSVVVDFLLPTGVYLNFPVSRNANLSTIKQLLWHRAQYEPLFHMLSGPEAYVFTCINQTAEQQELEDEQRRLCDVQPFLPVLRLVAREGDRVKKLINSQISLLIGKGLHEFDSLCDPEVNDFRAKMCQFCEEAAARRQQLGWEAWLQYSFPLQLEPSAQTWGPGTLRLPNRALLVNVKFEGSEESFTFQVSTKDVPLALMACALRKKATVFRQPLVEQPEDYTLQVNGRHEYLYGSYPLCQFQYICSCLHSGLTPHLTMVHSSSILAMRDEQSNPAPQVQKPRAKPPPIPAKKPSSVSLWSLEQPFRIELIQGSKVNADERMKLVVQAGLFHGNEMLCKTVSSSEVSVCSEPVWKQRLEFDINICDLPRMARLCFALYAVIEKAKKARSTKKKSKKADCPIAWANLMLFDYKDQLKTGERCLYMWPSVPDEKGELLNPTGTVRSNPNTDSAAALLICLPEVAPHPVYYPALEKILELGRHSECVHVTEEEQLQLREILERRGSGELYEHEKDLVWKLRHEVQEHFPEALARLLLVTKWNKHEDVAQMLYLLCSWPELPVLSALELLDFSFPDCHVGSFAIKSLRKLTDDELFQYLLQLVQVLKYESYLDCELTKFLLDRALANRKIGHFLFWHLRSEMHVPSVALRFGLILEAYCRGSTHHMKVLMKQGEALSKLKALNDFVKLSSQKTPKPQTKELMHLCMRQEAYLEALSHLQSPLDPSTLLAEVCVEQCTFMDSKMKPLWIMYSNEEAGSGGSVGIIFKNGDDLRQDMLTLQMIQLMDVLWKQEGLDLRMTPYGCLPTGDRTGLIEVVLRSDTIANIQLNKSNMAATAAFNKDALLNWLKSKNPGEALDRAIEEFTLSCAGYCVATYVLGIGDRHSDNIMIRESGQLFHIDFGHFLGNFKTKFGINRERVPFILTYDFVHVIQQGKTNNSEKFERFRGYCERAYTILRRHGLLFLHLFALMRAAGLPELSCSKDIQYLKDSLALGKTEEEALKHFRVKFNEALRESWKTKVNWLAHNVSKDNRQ
The series is described as follows: Binding affinity to PI3Kdelta in human SU-DHL-6 cells preincubated for 1 hrs followed by (S)-phenyl 5-(4-((1-(1-(3-azidopropanoyl)piperidine-4-carbonyl)pyrrolidin-3-yl)amino)pyrido[3,2-d]pyrimidin-6-yl)-2-methoxynicotinate addition and measured after 2 hrs by DBCO-Cy3 based SDS-PAGE analysis. Type of series: cell-based. To be noted: time 3.0 hrs.

Series [5] deals with T1, Phosphatidylinositol 4,5-bisphosphate 3-kinase catalytic subunit delta isoform (Homo sapiens). The series is described as follows: Covalent inhibition of PI3Kdelta (unknown origin) using PIP2:3PS as substrate assessed as rate constant for irreversible inactivation (Kinact) incubated upto 180 mins in presence of ATP by ADP-Glo reagent based assay.
For series [6], the target named is T2, Phosphatidylinositol 4,5-bisphosphate 3-kinase catalytic subunit delta isoform (Homo sapiens, UniProt O00329).
T2 sequence (O00329 whole entry): T1 sequence (whole entry)
Nature of the series: Covalent inhibition of PI3Kdelta (unknown origin) using PIP2:3PS as substrate assessed as inhibition constant incubated upto 180 mins in presence of ATP by ADP-Glo reagent based assay.

Series [7] deals with SU-DHL-6. The series is described as follows: Induction of apoptosis in human SU-DHL-6 cells assessed as early apoptotic cells at 1 uM incubated for 48 hrs by Annexin V-FITC/PI staining based flow cytometric analysis (reference value: 5.02 %). Type of series: functional.
Series [8] relates to SU-DHL-6. The series is described as follows: Induction of apoptosis in human SU-DHL-6 cells assessed as late apoptotic cells at 1 uM incubated for 48 hrs by Annexin V-FITC/PI staining based flow cytometric analysis (reference value: 4.12 %). In kind it is functional.
In series [9] the test system is SU-DHL-6. The series is described as follows: Induction of apoptosis in human SU-DHL-6 cells assessed as necrotic cells at 1 uM incubated for 48 hrs by Annexin V-FITC/PI staining based flow cytometric analysis (reference value: 1.05 %). Type of series: functional. A general note: Flow cytometry measures light scatter and fluorescence of single cells or particles in a stream.

For series [10], the system named is SU-DHL-6. Nature of the series: Induction of apoptosis in human SU-DHL-6 cells assessed as viable cells at 0.01 uM incubated for 48 hrs by Annexin V-FITC/PI staining based flow cytometric analysis (reference value: 89.81 %). In kind it is functional. Conditions: read-out: Activity.
In series [11] the test system is SU-DHL-6. The series is described as follows: Induction of apoptosis in human SU-DHL-6 cells assessed as early apoptotic cells at 0.01 uM incubated for 48 hrs by Annexin V-FITC/PI staining based flow cytometric analysis (reference value: 5.02 %). Type of series: functional.
For series [12], the system named is SU-DHL-6. Nature of the series: Induction of apoptosis in human SU-DHL-6 cells assessed as necrotic cells at 0.01 uM incubated for 48 hrs by Annexin V-FITC/PI staining based flow cytometric analysis (reference value: 1.05 %). In kind it is functional.
In series [13] the test system is SU-DHL-6. The series is described as follows: Induction of apoptosis in human SU-DHL-6 cells assessed as late apoptotic cells at 0.1 uM incubated for 48 hrs by Annexin V-FITC/PI staining based flow cytometric analysis (reference value: 4.12 %). In kind it is functional.
In series [14] the test system is SU-DHL-6. The series is described as follows: Induction of apoptosis in human SU-DHL-6 cells assessed as necrotic cells at 0.1 uM incubated for 48 hrs by Annexin V-FITC/PI staining based flow cytometric analysis (reference value: 1.05 %). In kind it is functional.
Series [15] concerns SU-DHL-6. Nature of the series: Induction of cell cycle arrest in human SU-DHL-6 cells assessed as increase in G0/G1 phase cells incubated for 24 hrs by PI staining based flow cytometric analysis. Type of series: functional. Conditions: dose 1-100 nM.
For series [16], the system named is SU-DHL-6. The series is described as follows: Antitumor activity against human SU-DHL-6 cells xenografted in male nude mouse assessed as tumor growth inhibition at 30 mg/kg/day, po administered for 14 days relative to control. To be noted: SU-DHL-6, 336 h, time 14 day, read-out: TGI. In kind it is functional.
The nature of series [17]: Toxicity in male nude mouse xenografted with human SU-DHL-6 cells assessed as change in body weight at 5 to 30 mg/kg/day, po administered for 14 days. Type of series: organism-based. To be noted: in vivo, 336 h, dose 5-30 mg/kg/day, time 14 day.
Series [18] has as its system SU-DHL-6. Nature of the series: Antitumor activity against human SU-DHL-6 cells xenografted in male nude mouse assessed as reduction in Ki67 expression in tumor at 5 to 30 mg/kg/day, po administered for 14 days by immunohistochemical staining based analysis. In kind it is functional, organism-based. To be noted: dose 5-30 mg/kg/day, time 14.0 day.
For the next series, the system named is Mus musculus. Nature of the series: In vivo inhibition of PI3K signaling pathway in male nude mouse xenografted with human SU-DHL-6 cells assessed as reduction in AKT phosphorylation in tumor at 5 to 30 mg/kg/day, po administered for 14 days by Western blot analysis. Type of series: functional, organism-based. Conditions: dose 5-30 mg/kg/day, time 14.0 day.

Chain of Phosphatidylinositol 4,5-bisphosphate 3-kinase catalytic subunit alpha isoform (P42336 whole entry, canonical isoform): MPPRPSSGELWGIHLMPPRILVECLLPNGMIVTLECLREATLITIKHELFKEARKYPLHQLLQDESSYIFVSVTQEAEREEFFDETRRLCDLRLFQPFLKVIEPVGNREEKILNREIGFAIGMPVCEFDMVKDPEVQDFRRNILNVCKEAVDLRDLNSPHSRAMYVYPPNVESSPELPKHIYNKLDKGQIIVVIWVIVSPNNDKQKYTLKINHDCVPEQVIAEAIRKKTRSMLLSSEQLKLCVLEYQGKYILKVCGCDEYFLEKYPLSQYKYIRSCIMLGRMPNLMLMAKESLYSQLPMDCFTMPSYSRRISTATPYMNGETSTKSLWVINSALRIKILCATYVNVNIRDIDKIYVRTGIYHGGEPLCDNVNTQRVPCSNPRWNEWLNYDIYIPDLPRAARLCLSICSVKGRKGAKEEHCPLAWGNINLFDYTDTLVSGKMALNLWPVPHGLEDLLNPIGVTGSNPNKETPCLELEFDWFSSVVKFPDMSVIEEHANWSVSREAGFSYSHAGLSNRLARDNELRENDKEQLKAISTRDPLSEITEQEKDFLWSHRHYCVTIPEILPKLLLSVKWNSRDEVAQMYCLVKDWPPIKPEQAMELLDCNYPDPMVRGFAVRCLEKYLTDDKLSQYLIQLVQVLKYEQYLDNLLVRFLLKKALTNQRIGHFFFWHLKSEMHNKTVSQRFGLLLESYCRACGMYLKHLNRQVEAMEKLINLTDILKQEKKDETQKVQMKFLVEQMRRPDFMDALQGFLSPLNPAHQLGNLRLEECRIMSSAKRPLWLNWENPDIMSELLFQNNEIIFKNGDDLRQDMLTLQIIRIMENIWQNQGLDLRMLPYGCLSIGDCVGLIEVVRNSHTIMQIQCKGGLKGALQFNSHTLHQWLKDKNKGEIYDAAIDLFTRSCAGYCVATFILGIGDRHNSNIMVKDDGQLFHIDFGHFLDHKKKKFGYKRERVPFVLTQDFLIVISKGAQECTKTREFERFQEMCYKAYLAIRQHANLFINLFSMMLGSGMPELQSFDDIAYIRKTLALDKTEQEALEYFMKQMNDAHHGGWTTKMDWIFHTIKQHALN

By half-life is commonly meant the time in which the quantity being followed falls by half. Usually IC50 stands for the concentration that inhibits the measured activity by half. For orientation: GI50 means the concentration at which growth is held to half of that of the control. Lower therefore signals greater sensitivity of the cells. `COc1ncc(-c2ccc3ncnc(N[C@H]4CCN(C(=O)C5CCOCC5)C4)c3n2)cc1C(=O)Oc1ccccc1`: in series [1], the half-life at 1 µM stood at 2.82 h. The IC50 in series [2] came out at 0.611 µM. The molecule further showed a GI50 in the series on Raji of 5.39 µM. Besides, in [3], the RatioGI50 came out at 2500. The result (in series [4]; with SU-DHL-6 [18]) was Active. Besides, the Kinact in series [5] is 0.02 min⁻¹. Besides, the Ki in series [6] was 0.00185 µM. Also, the Activity in the series with SU-DHL-6 [7] was found to be 63.74%; in the series on SU-DHL-6 [8], 20.35%; with SU-DHL-6 [9], 1.57%; in the series with SU-DHL-6 [11], 10.3%; in the series on SU-DHL-6 [12] it was 0.52%; in the series on SU-DHL-6 [13], 15.06%. The Activity was 0.92% in the series with SU-DHL-6 [14], “Dose-Dependent Effect” in the series on SU-DHL-6 [15] and “Non-Toxic” in series [17]. For the same molecule, the viability at 0.01 µM in the series with SU-DHL-6 [10] stood at 85%. In addition, the inhibition in vivo at 30 mg/kg/day with SU-DHL-6 [16] came to 95%. In addition, in the series on Mus musculus, the inhibition result is “Active”.
